Results taken from patent publication US20100004238A1, “FUSED HETEROCYCLIC COMPOUND” (TAKEDA PHARMACEUTICAL COMPANY LIMITED, priority 2006, published 2010).

Molecular target: T1, EGFR intracellular domain (EGFR kinase) (Homo sapiens, UniProt P00533)
T1 construct: made in house; host or cells: SF-21 insect cells infected with recombinant baculovirus BAC-EGFR
Assay: Determination of EGFR kinase inhibitory activity
Assay type: biochemical
Details: compound at 1.0 μM, poly-Glu:Tyr (4:1) substrate, [γ-32P]ATP; for inhibition at 1 µM: read-out: inhibitory rate (%) at 1.0 μM
Protocol: Human EGFR gene was cloned by RT-PCR using total RNA prepared from A431 cells as a template. The primer used for RT-PCR was prepared in consideration of the information of nucleotide sequence (Genbank Accession No. X00588) of EGFR gene by adding a nucleotide sequence encoding DYKDDDD peptide and a restriction enzyme recognition sequence to a nucleotide sequence (corresponding to 2191-3819 of Genbank Accession No. X00588 as a base, 669-1210 amino acids of Genbank Accession No. NP_005219 as a protein) encoding the EGFR intracellular domain region such that the protein contains an N-terminal DYKDDDD peptide tag. The primer nucleotide sequence is shown below.
SF-21 cells were sown at 1×10^6 cells/mL in Sf-900II SFM medium (1 L, Invitrogen) containing 10% fetal bovine serum (trace), 50 mg/L gentamicin (Invitrogen) and 0.1% Pluronic F-68 (Invitrogen), and shaking culture was performed using a 2 L volume Erlenmeyer flask at 27° C., 100 rpm. After culturing for 24 hrs, recombinant baculovirus BAC-EGFR (13.4 mL) was added, and the mixture was further cultured for 3 days. The culture medium was centrifuged at 2,000 rpm for 5 min to give virus-infected cells. The infected cells were washed with a phosphate buffered saline (Invitrogen), centrifuged under the same conditions, and the cells were preserved at −80° C. The cryopreserved cells were thawed in ice, suspended in buffer A (50 mM Tris buffer (30 mL, pH 7.4) containing 20% glycerol, 0.15 M NaCl) supplemented with Complete Protease Inhibitor (Boehringer), and ruptured 3 times with a Polytron homogenizer (Kinematica) at 20,000 rpm for 30 sec. The ruptured solution was clarified by centrifugation at 40,000 rpm for 30 min, and filtered with a 0.45 μm filter. The filtrate was passed through a column packed with Anti-FLAG M2 Affinity Gel (4 mL, Sigma-Aldrich) at a flow rate of about 0.5 mL/min. The column was washed with buffer A, and eluted with buffer A containing 100 μg/mL of FLAG peptide. The eluent was concentrated with Vivaspin 20 (Vivascience) having a molecular weight cut off of 30K. The concentrate was purified by gel filtration using Hi Load 16/60 Superdex 200 pg (GE Healthcare Bioscience) equilibrated with buffer A. The fractions containing EGFR intracellular domain were collected and cryopreserved at −80° C.
EGFR kinase reaction was performed using a 96 well plate. As a buffer for kinase reaction, a buffer having a composition of 50 mM Tris-HCl (pH 7.5), 5 mM MnCl2, 2 mM dithiothreitol, 0.01% Tween-20 was used. The compound of the present invention was dissolved in dimethyl sulfoxide (DMSO), and diluted with the kinase reaction buffer so that DMSO concentration would be 0.1% during kinase reaction. This compound solution (10 μL) was mixed with a kinase reaction buffer (20 μL) containing EGFR intracellular domain (0.625 μg/mL) obtained in Experimental Example 2B and polypeptide substrate poly-Glu:Tyr (4:1) (Sigma Ltd., 12.5 μg/mL), and the mixture was stood at room temperature for 5 min. Then, a kinase reaction buffer (20 μL) containing 125 μM ATP and 45 μCi/mL [γ-^32P]ATP was added, and the kinase reaction was initiated with 50 μL of the final reaction mixture. A kinase reaction was performed at room temperature for 10 min, and the kinase reaction was quenched by addition of 20% TCA solution (50 μL). The mixture after completion of the reaction was stood at room temperature for 30 min, and acid insoluble fractions in the mixture after completion of the reaction were collected in a 96 well GF/C filter plate (PerkinElmer) using a cell harvester (PerkinElmer). Thereafter, the filter containing the acid insoluble fractions was washed with 3% phosphoric acid solution. After washing, the filter plate was dried at 45° C. for 60 min, and 25 μL of MicroScinti 0 (PerkinElmer) was added. The radioactivity was measured using TopCount (PerkinElmer).
EGFR kinase inhibitory rate (%) of the test compound was calculated by the following formula: […]

T1 sequence (P00533 669-1210): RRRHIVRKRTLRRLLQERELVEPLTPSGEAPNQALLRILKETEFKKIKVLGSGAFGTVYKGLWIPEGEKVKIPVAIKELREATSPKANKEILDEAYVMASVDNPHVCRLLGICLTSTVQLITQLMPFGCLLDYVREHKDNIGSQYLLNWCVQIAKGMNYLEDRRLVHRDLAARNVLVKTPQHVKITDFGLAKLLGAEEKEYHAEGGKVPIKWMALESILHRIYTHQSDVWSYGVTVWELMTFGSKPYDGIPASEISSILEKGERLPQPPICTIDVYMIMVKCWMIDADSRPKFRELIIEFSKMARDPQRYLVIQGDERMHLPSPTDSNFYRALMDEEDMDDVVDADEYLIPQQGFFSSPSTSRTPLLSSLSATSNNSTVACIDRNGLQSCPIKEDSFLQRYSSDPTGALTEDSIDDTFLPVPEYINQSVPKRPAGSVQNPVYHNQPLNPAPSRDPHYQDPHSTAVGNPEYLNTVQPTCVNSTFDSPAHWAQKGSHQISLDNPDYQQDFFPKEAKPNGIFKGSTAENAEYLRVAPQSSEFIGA

SMILES | inhibitory rate (%) at 1.0 μM (methanesulfonate, 1 µM) | inhibition at 1 µM
CC(=O)NCCn1ccc2ncnc(Nc3ccc(Oc4cccc5sccc45)c(Cl)c3)c21 [Example 119, N-[2-(4-{[4-(1-benzothiophen-4-yloxy)-3-chlorophenyl]amino}-5H-pyrrolo[3,2-d]pyrimidin-5-yl)ethyl]acetamide methanesulfonate] | 99% | 
CC(=O)NCCn1ccc2ncnc(Nc3ccc(Oc4cccc5sccc45)c(Cl)c3)c21 [Example 99, N-[2-(4-{[4-(1-benzothiophen-4-yloxy)-3-chlorophenyl]amino}-5H-pyrrolo[3,2-d]pyrimidin-5-yl)ethyl]acetamide] |  | 98%
CC(C)(CO)C(=O)NCCn1ccc2ncnc(Nc3ccc(Oc4ccc5ccsc5c4)c(Cl)c3)c21 [Example 53, N-[2-(4-{[4-(1-benzothiophen-6-yloxy)-3-chlorophenyl]amino}-5H-pyrrolo[3,2-d]pyrimidin-5-yl)ethyl]-3-hydroxy-2,2-dimethylpropanamide] |  | 98%
CS(=O)(=O)CC(=O)NCCn1ccc2ncnc(Nc3ccc(Oc4ccc5ccsc5c4)c(Cl)c3)c21 [Example 60, N-[2-(4-{[4-(1-benzothiophen-6-yloxy)-3-chlorophenyl]amino}-5H-pyrrolo[3,2-d]pyrimidin-5-yl)ethyl]-2-(methylsulfonyl)acetamide] |  | 99%
